Results on 22 compounds are retold here after patent US9156796B2, “Benzoimidazole-carboxylic acid amide derivatives as APJ receptor modulators” (SANOFI, priority 2013, dated 2015).

Each structure is given as a SMILES string.

The experiment concerns the target T1, human apelin receptor (Homo sapiens, UniProt P35414).
T1 construct: expressed in transfected cells
T1 sequence (P35414 1-380): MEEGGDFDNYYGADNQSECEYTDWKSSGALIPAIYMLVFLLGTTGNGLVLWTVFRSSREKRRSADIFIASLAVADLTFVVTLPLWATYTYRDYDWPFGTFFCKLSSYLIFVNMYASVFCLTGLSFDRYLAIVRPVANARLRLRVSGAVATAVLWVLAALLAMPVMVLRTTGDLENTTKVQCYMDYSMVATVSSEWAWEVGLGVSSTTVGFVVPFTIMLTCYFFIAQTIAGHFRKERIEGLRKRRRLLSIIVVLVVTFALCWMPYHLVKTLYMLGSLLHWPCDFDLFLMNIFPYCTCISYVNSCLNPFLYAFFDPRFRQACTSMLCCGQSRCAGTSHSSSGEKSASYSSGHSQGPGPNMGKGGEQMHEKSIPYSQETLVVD
Put plainly: Determination of agonism on the human apelin receptor by a calcium fluorescence assay (FLIPR). Particulars: HEK293 cells stably transfected with human apelin receptor and Giaq protein, Fluo-4 calcium fluorescence, read-out: EC50 (APJ agonism). It is filed as cell-based. In short, it runs like this:
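HEK293 cells stably co-expressing human apelin receptor and promiscuous Giaq, loaded 1 h at 37 °C with Fluo-4 (4 μM) in probenecid-containing Hepes buffer, pH 7.4. Compounds, at least 7 concentrations in triplicate, added in FLIPR Tetra; peak calcium fluorescence normalized to 1 μM apelin-13 as 100% to derive EC50.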
Regarding `CCC(CC)n1c(Cc2cccs2)nc2cc(C(=O)N[C@@H](CC(C)C)C(=O)NCCC(F)(F)F)ccc21` [Example 251, 1-(-Ethyl-propyl)-2-thiophen-2-ylmethyl-1H-benzoimidazole-5-carboxylic acid [(S)-3-methyl-1-(3,3,3-trifluoro-propylcarbamoyl)-butyl]-amide], the concentration giving a half-maximal response (EC50) was 2560 nM.
For `CCCCOC[C@H](CC(C)C)NC(=O)c1ccc2c(c1)nc(Cc1cccs1)n2C(CC)CC` [Example 210, 1-(1-Ethyl-propyl)-2-thiophen-2-ylmethyl-1H-benzoimidazole-5-carboxylic acid ((S)-1-butoxymethyl-3-methyl-butyl)-amide], the EC50 came to 10200 nM.
In the case of `CCC(CC)n1c(Cc2cccs2)nc2cc(C(=O)N[C@@H](CC3CCCCC3)[C@@H](O)CC(=O)O)ccc21` [Example 79, (3S,4S)-5-Cyclohexyl-4-{[1-(1-ethyl-propyl)-2-thiophen-2-ylmethyl-1H-benzoimidazole-5-carbonyl]-amino}-3-hydroxy-pentanoic acid], the EC50 came out at 80 nM.
The same measure for `CCC(CC)n1c(Cc2cccs2)nc2cc(C(=O)N[C@@H](CC(C)C)C(=O)N3CCN(C)CC3)ccc21` [Example 225, 1-(1-Ethyl-propyl)-2-thiophen-2-ylmethyl-1H-benzoimidazole-5-carboxylic acid [(S)-3-methyl-1-(4-methyl-piperazine-1-carbonyl)-butyl]-amide]: 775 nM; for `CCC(CC)n1c(Cc2ccco2)nc2cc(C(=O)NC(CC(=O)O)c3ccccc3)ccc21` (stereo not shown) [Example 42, 3-{[1-(1-Ethyl-propyl)-2-furan-2-ylmethyl-1H-benzoimidazole-5-carbonyl]-amino}-3-phenyl-propionic acid]: 1100 nM.
On to `CCC(CC)n1c(Cc2cccs2)nc2cc(C(=O)NC3(C(=O)O)CCCC3)ccc21` [Example 6, 1-{[1-(1-Ethyl-propyl)-2-thiophen-2-ylmethyl-1H-benzoimidazole-5-carbonyl]-amino}-cyclopentanecarboxylic acid], for which the EC50 came to 3820 nM.
`CCC(CC)n1c(Cc2cccs2)nc2cc(C(=O)N[C@@H](CC(C)C)C(=O)NCCCN3CCN(C)CC3)ccc21` [Example 227, 1-(1-Ethyl-propyl)-2-thiophen-2-ylmethyl-1H-benzoimidazole-5-carboxylic acid {(S)-3-methyl-1-[3-(4-methyl-piperazin-1-yl)-propylcarbamoyl]-butyl}-amide]: the EC50 stood at 287 nM.
With `CCC(CC)n1c(Cc2cccs2)nc2cc(C(=O)NC(CC3CCCCCC3)C(=O)O)ccc21` (single isomer, unassigned) [Example 448], the EC50 worked out at 706 nM.
Turning to `CC(C)C[C@H](NC(=O)c1ccc2c(c1)nc(Cc1cccs1)n2C1CCCCC1C(F)(F)F)C(=O)O` (stereo partly drawn) [Example 87, (S)-4-Methyl-2-{[2-thiophen-2-ylmethyl-1-(2-trifluoromethyl-cyclohexyl)-1H-benzoimidazole-5-carbonyl]-amino}-pentanoic acid], the EC50 worked out at 882 nM.
In the case of `C[C@@H]1CCCC[C@H]1n1c(Cc2cccs2)nc2cc(C(=O)NC(CC3CCC(C)(C)CC3)C(=O)O)ccc21` (single isomer, unassigned) [Example 446], the EC50 worked out at 2140 nM.
Take `CCC(CC)n1c(Cc2cccs2)nc2cc(C(=O)N[C@H](CC(=O)O)CC3CCCC3)ccc21` [Example 60, (S)-4-Cyclopentyl-3-{[1-(1-ethyl-propyl)-2-thiophen-2-ylmethyl-1H-benzoimidazole-5-carbonyl]-amino}-butyric acid]: the EC50 turned out to be 46 nM.
The same measure for `CCC(CC)n1c(Cc2cncs2)nc2cc(C(=O)N[C@H](CC(=O)O)CC(C)C)ccc21` [Example 50, (S)-3-{[1-(1-Ethyl-propyl)-2-thiazol-5-ylmethyl-1H-benzoimidazole-5-carbonyl]-amino}-5-methyl-hexanoic acid]: 205 nM; for `CCC(CC)n1c(Cc2cccs2)nc2cc(C(=O)N[C@@H](CC(C)C)C(=O)NCCCN3CCN(Cc4c(F)cccc4Cl)CC3)ccc21` [Example 277, 1-(1-Ethyl-propyl)-2-thiophen-2-ylmethyl-1H-benzoimidazole-5-carboxylic acid ((S)-1-{3-[4-(2-chloro-6-fluoro-benzyl)-piperazin-1-yl]-propylcarbamoyl}-3-methyl-butyl)-amide]: 2100 nM.
As for `CCC(CC)n1c(Cc2cccs2)nc2cc(C(=O)N[C@@H](Cc3ccc(Cl)c(Cl)c3)C(=O)O)ccc21` [Example 32, (S)-3-(3,4-Dichloro-phenyl)-2-{[1-(1-ethyl-propyl)-2-thiophen-2-ylmethyl-1H-benzoimidazole-5-carbonyl]-amino}-propionic acid], the concentration giving a half-maximal response (EC50) was determined as 4570 nM.
On to `CCC(CC)n1c(Cc2cccs2)nc2cc(C(=O)N[C@@H](CC(C)C)C(=O)N3CC4CC3CN4CC3CCCC3)ccc21` (stereo partly drawn) [Example 349, 1-(1-Ethyl-propyl)-2-thiophen-2-ylmethyl-1H-benzoimidazole-5-carboxylic acid [(S)-1-(5-cyclopentylmethyl-2,5-diaza-bicyclo[2.2.1]heptane-2-carbonyl)-3-methyl-butyl]-amide], for which the EC50 was 3040 nM.
As for `CCC(CC)n1c(Cc2cccs2)nc2cc(C(=O)N[C@H](CC(=N)NO)CC(C)C)ccc21` [Example 473, 1-(1-Ethyl-propyl)-2-thiophen-2-ylmethyl-1H-benzoimidazole-5-carboxylic acid [(S)-1-(N-hydroxycarbamimidoylmethyl)-3-methyl-butyl]-amide], the EC50 was 173 nM.
Take `CCC(CC)n1c(Cc2cccs2)nc2cc(C(=O)N[C@@H](CC(C)C)C(=O)NCCCCN(C)C)ccc21` [Example 245, 1-(1-Ethyl-propyl)-2-thiophen-2-ylmethyl-1H-benzoimidazole-5-carboxylic acid [(S)-1-(4-dimethylamino-butylcarbamoyl)-3-methyl-butyl]-amide]: the EC50 is 291 nM.
As for `CCC(CC)n1c(Cc2cccs2)nc2cc(C(=O)NC(CC(C)C)C(C)(C)C(=O)O)ccc21` (single isomer, unassigned) [Example 465], the EC50 is 948 nM.
Take `CCC(CC)n1c(Cc2cccs2)nc2cc(C(=O)N[C@@H](CC(C)C)C(=O)NC3CCOCC3)ccc21` [Example 249, 1-(1-Ethyl-propyl)-2-thiophen-2-ylmethyl-1H-benzoimidazole-5-carboxylic acid [(S)-3-methyl-1-(tetrahydro-pyran-4-ylcarbamoyl)-butyl]-amide]: the EC50 is 407 nM.
With `CCC(CC)n1c(Cc2ccoc2)nc2cc(C(=O)N[C@@H](CC(C)C)C(=O)O)ccc21` [Example 118, (S)-2-{[1-(1-Ethyl-propyl)-2-furan-3-ylmethyl-1H-benzoimidazole-5-carbonyl]-amino}-4-methyl-pentanoic acid], the EC50 is 222 nM.
As to `CCC(CC)n1c(Cc2cccs2)nc2cc(C(=O)N[C@@H](CC(C)C)C(=O)NC3CCN(Cc4ccccc4)C3)ccc21` (stereo partly drawn) [Example 319, 1-(1-Ethyl-propyl)-2-thiophen-2-ylmethyl-1H-benzoimidazole-5-carboxylic acid [(S)-1-(1-benzyl-pyrrolidin-3-ylcarbamoyl)-3-methyl-butyl]-amide], the EC50 was determined as 1520 nM.
`CCC(CC)n1c(Cc2cccs2)nc2cc(C(=O)N[C@@H](CC(C)C)C(=O)N(C)C3CCOCC3)ccc21` [Example 377, 1-(1-Ethyl-propyl)-2-thiophen-2-ylmethyl-1H-benzoimidazole-5-carboxylic acid {(S)-3-methyl-1-[methyl-(tetrahydro-pyran-4-yl)-carbamoyl]-butyl}-amide]: the EC50 was 1140 nM.
